Measurements published in US11339193B2, “CDP protein secretion inhibitors” (KEZAR LIFE SCIENCES, priority 2018, dated 2022).
Peptide text beside a SMILES is read from it.

Assays:
Format in all cases: cell-based
[1] = tested on: NCI-H929 multiple myeloma cell line; test: H929 assay (cell viability, Celltiter-Glo); conditions: Homo sapiens, NCI-H929; 48 hours, cell viability; read-out: H929 EC50
Outline: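 Cells plated in RPMI 1640 with 10% FBS and 2 mM glutamine, treated with compound dilutions in DMSO/media. Incubation 48 h at 37° C, 5% CO2. Viability from luciferase luminescence signal.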

[2] = tested on: Prl-ss+10aa/Gaussia Luciferase; test: Prl-ss-Gluc assay (constitutively active or 24 hr Dox inducible); conditions: Flp-In 293 T-REx cells, 24 hours; read-out: Prl IC50
Outline: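 Stable Flp-In 293 T-REx lines express Prl signal sequence+10aa fused to Gaussia luciferase, either constitutively (pcDNA5/FRT) or under the T-REx promoter (pcDNA5/FRT/TO). Cells plated the day before; compounds in DMSO/media (with doxycycline for the inducible line, 24 h) incubated at 37 °C, 5% CO2.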

[3] = tested on: U266B1 multiple myeloma cell line; test: U266 assay (cell viability, Celltiter-Glo); conditions: Homo sapiens, U-266; 48 hours, cell viability
Description: Cells were plated in 384-well tissue culture plates and treated with compound dilutions in DMSO/media. Plates were incubated at 37° C., 5% CO2 for 48 hours. After 48 hours, Celltiter-Glo@ (Promega) was added to each well and luciferase signal was quantified using Tecan Infinite M1000 Pro for cell viability determination.

[4] = tested on: BT474 breast tumor cell line; test: BT474 assay (Alamar blue); conditions: Homo sapiens, BT-474, 72 h
Outline: (§1)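 For both lines, 5000 cells/well were exposed to compound or a 1% DMSO-medium control for 72 h unless otherwise specified. Signal was normalized to the DMSO control.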

HER3ss-Gluc = test: HER3ss assay; conditions: HEK-293T T-rex cells, transient transfection, doxycycline, 24 h; read-out: HER3 ss IC50
Outline: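 HEK-293T T-REx cells were transiently transfected with HER3 signal sequence (plus four mature-domain residues) fused upstream of mature Gaussia luciferase. Cells were induced with doxycycline (1 μg/ml) and exposed to increasing compound concentrations for 24 h, then secreted luciferase in the conditioned medium was read by luminescence.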

[5] = tested on: VCAMss+10aa/Gaussia Luciferase; test: VCAM-ss-Gluc assay (constitutively active or Dox induced); conditions: Flp-In 293 T-REx cells, 24 hours
Outline: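 Stable cell lines secreting a VCAM signal sequence+10aa/Gaussia luciferase fusion, expressed either constitutively or under T-REx doxycycline control. Cells plated the day before; compound dilutions in DMSO/media (with doxycycline for the induced line) added and incubated at 37° C, 5% CO2.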

[6] = tested on: JJN3 plasma cell leukemia cell line; test: JJN-3 assay (Alamar blue); conditions: Homo sapiens, 72 h
Outline: as §1

[7] = tested on: TNFα-FL/Gaussia Luciferase; test: Dox induced TNFα-FL-Gluc assay; conditions: Flp-In 293 T-REx cells, doxycycline, 24 hours; read-out: TNFa FL Gluc IC50
Outline: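 Stable Flp-In 293 T-REx line expressing full-length TNFα (aa 1-233) fused at its C-terminus to Gaussia luciferase under doxycycline-inducible control. Cells plated the day before, then given compound dilutions in DMSO/media containing doxycycline and incubated at 37 °C, 5% CO2.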

[8] = tested on: PD1-ss+10aa/Gaussia Luciferase; test: Dox induced PD1-ss-Gluc assay; conditions: Flp-In 293 T-REx cells, doxycycline, 24 hours; read-out: PD1ss Gluc IC50
Outline: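 Stable Flp-In 293 T-REx line expressing doxycycline-inducible Gaussia luciferase fused to the PD1 signal sequence plus 10 amino acids. Cells plated the day before, then exposed to compound dilutions in DMSO/media containing doxycycline at 37 °C, 5% CO2.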

EC50 [1] [nM]	IC50 [2] [nM]	EC50 [3] [nM]	EC50 [4] [nM]	IC50 (HER3ss-Gluc) [nM]	IC50 [5] [nM]	EC50 [6] [nM]	IC50 [7] [nM]	IC50 [8] [nM]	SMILES
1280	361	8000	850	51	492	235	108	18	CC(C)C[C@@H]1NC(=O)[C@H](Cc2cn(Cc3ccc(Br)cc3)c3ccccc23)N(C)C(=O)[C@H](CC(C)C)NC(=O)[C@H](CC(C)C)N(C)C(=O)[C@H](CC(C)C)NC(=O)[C@@H](CCC#N)OC(=O)[C@H](C)N(C)C1=O [C-14] (HELM PEPTIDE1{L.[meA].[N#CCC[C@@H](O[*:1])C(=O)[*:2]].L.[meL].L.[CN([C@@H](Cc1cn(Cc2ccc(Br)cc2)c2ccccc12)C(=O)[*:2])[*:1]]}$PEPTIDE1,PEPTIDE1,1:R1-7:R2$$$V2.0)
1680	856	17300	2140	101	140	319	234	57	COc1cc(Cn2cc(C[C@H]3C(=O)N[C@@H](CC(C)C)C(=O)N(C)[C@@H](C)C(=O)O[C@H](CCC#N)C(=O)N[C@@H](CC(C)C)C(=O)N(C)[C@@H](CC(C)C)C(=O)N[C@@H](CC(C)C)C(=O)N3C)c3ccccc32)ccc1F [C-27] (HELM PEPTIDE1{L.[meA].[N#CCC[C@@H](O[*:1])C(=O)[*:2]].L.[meL].L.[COc1cc(Cn2cc(C[C@@H](C(=O)[*:2])N(C)[*:1])c3ccccc32)ccc1F]}$PEPTIDE1,PEPTIDE1,1:R1-7:R2$$$V2.0)

SMILES	EC50 [1] [nM]	IC50 [2] [nM]	EC50 [3] [nM]	EC50 [4] [nM]	IC50 (HER3ss-Gluc) [nM]	IC50 [5] [nM]	EC50 [6] [nM]	IC50 [7] [nM]	IC50 [8] [nM]
COc1cccc(Cn2cc(C[C@H]3C(=O)N[C@@H](CC(C)C)C(=O)N(C)[C@@H](C)C(=O)O[C@H](CCC#N)C(=O)N[C@@H](CC(C)C)C(=O)N(C)[C@@H](CC(C)C)C(=O)N[C@@H](CC(C)C)C(=O)N3C)c3ccccc32)c1 [C-13] (HELM PEPTIDE1{L.[meA].[N#CCC[C@@H](O[*:1])C(=O)[*:2]].L.[meL].L.[COc1cccc(Cn2cc(C[C@@H](C(=O)[*:2])N(C)[*:1])c3ccccc32)c1]}$PEPTIDE1,PEPTIDE1,1:R1-7:R2$$$V2.0)	830	1900	17000	1360	69	1030	192	118	30
